Test results published in US20150175877A1, “ENVIRONMENTALLY ACCEPTABLE MULTIFUNCTIONAL ADDITIVE” (SCHLUMBERGER TECHNOLOGY CORPORATION, priority 2013, published 2015).

Tested on: bacteria in North Sea location water
Assay: Bacteria growth study in water using dipslides
Format: cell-based
Details: 35° C., dipslide; for Bacteria count: two replicated tests
Method: Bacteria Growth Study at 35° C. [95° F.]
Following is the qualitative study of bacteria growth in water using dipslides. A dipslide is used to test the presence of microorganisms in liquids. Dipslides are the fastest and easiest way to measure the microbial activity in liquid-based systems and in this testing it is used to evaluate the performance of Bodoxin AE.

Compound: OCOCCOCO [Bodoxin AE, (ethylenedioxy)dimethanol]
- Bacteria count in location water when biocide is used (in words) (compared with tap or distilled water): reduced significantly reaching the same level as tap or distilled water
- Bacteria count (biocide conc. 0.50 gpt): <10^3 (CFU/ml)
- Bacteria count (biocide conc. 1.00 gpt): <10^3 (CFU/ml)
- Bacteria count (biocide conc. 1.50 gpt): <10^3 (CFU/ml)
